Paper PMC13234881, “Synthesis and Cytotoxicity of Complex Betulinic Acid Amides” (ACS Omega, 2026)

What was measured:
cervical carcinoma HeLa = experiment: Cytotoxicity screening test, HeLa; type: cell-based; conditions: Homo sapiens; HeLa cervical cancer, 72 h; read-out: Cytotoxicity IC50 ± SD, HeLa
From the text: (§1) The screening cell lines, T-lymphoblastic leukemia CCRF-CEM, breast carcinoma MCF7, cervical carcinoma HeLa, and human foreskin fibroblasts BJ, were obtained from the American Type Culture Collection (Manassas, VA, USA). The procedure for cell culturing has already been described. ,

breast carcinoma MCF7 = experiment: Cytotoxicity screening test, MCF7; type: cell-based; conditions: Homo sapiens; MCF7 breast adenocarcinoma, 72 h; read-out: Cytotoxicity IC50 ± SD, MCF7
From the text: as §1

With `COc1cccc2c1C(=O)c1c(O)c3c(c(O)c1C2=O)C[C@@](O)(C(=O)CO)C[C@@H]3O[C@H]1C[C@H](N)[C@H](O)[C@H](C)O1` [doxorubicin] the IC50 (cervical carcinoma HeLa) was 868 ± 54 nM and the IC50 (breast carcinoma MCF7) was 273 ± 19 nM.
